Data on seven substances can be found in US12138312B2, “Cell-penetrating peptides for antisense delivery” (Sarepta Therapeutics, Inc., priority 2017, dated 2024).

Read-outs that look alike come from different tables or passages of the source. No end group written: not given here.

This assay concerns HeLa 654 cells. Kind of assay: eGFP exon-skipping reporter assay, flow cytometry analysis of GFP fluorescence. In kind it is cell-based. A general note: A reporter such as luciferase makes a cellular process visible.
Setting [1] is: […], 5 μM, 22 hours, MEM with 10% FBS.
[2] abbreviates: eGFP fluorescence of CPP-PMO IVS2-654 conjugate compared to unconjugated PMO, 5 μM, 22 hours, MEM with 10% FBS.

As to “λN(1-22): PMO IVS2-654 conjugated to CPP MDAQTRRRERRAEKQAQWKAAN (also: conjugated to PMO IVS2-654 cargo; UniProt P03045 1-22, looked up, fragment)”, the “Activity Relative to PMO” value under setting [1] worked out at 1.4.

Consider Melittin, for which, under setting [1], the “Activity Relative to PMO” value amounted to 4.5.

In the case of Buforin 2, under setting [2], the “Activity Relative to PMO” value was determined as 1.9.

As for Penetratin, the “Activity Relative to PMO” value under setting [2] turned out to be 4.2.

In the case of SAP(E), the “Activity Relative to PMO” value under setting [2] worked out at 0.8.

“Pyrrhocoricin (VDKGSYLPRPTPPRPIYNRN; ends and bridges not checked; also: conjugated to PMO cargo; UniProt P37362 1-20, looked up)”: the “Activity Relative to PMO” value is 1.4.

For Transportan 10, the “Activity Relative to PMO” value under setting [1] is 0.8.
